We go through seven compounds from patent US12662511B2, “Molecular transport system to the central nervous system” (SRI International, priority 2020, dated 2026).

One data set relates to choroid plexus cells. Kind of data set: Transport across monolayer of choroid plexus cells with dye or streptavidin cargo (FIG. 21). The data set is classed as cell-based. Particulars: chemical (AF647 dye) and protein (50 kDa Streptavidin) cargoes. The source says: The integrity of the monolayer with tight junctions is observed by the lack of diffusion or transport of low a molecular weight dye (750) maleimide), a 10 kDa dextran polymer, or larger protein (50 kDa). In the SA conjugate, the MTS has a biotin in the core structure. The biotin is then conjugated to a streptavidin protein labeled with a fluorophore.

A short description of data set [1]: In vivo CSF accumulation and brain distribution of dye-labeled MTS after IV tail vein injection. The arrangement: species or system rat. The following applies: for amount present relative to MTS_CPEC4_V2 / distribution in brain (fluorescence imaging of coronal slices): rat, IV tail vein; for amount present relative to MTS_CPEC4_V2: CSF, dimeric peptide, fold higher than MTS_CPEC4_V2; for distribution in brain (fluorescence imaging of coronal slices): dye-labeled MTS. On the procedure:
The MTS is labeled with a dye that allows us to visualize its location. It is injected IV into the tail vein of a rat. After the indicated time, the CSF is isolated from the cisterna magna. The brain is harvested. After a fixation period, the brain is sliced in 1 mm coronal segments (front to back). The individual slices of the brain are imaged using fluorescence to locate the regions of peptide accumulation.
Dimeric MTS_Z310-5 is present in an amount 3× higher than MTS_CPEC4_V2 (FIG. 26). […] The MTS is labeled with a dye that allows us to visualize its location. It is injected IV into the tail vein of a rat. After the indicated time, the CSF is isolated from the cisterna magna. The brain is harvested. After a fixation period, the brain is sliced in 1 mm coronal segments (front to back). The individual slices of the brain are imaged using fluorescence to locate the regions of peptide accumulation
Dimeric MTS_Z310-2 is present in an amount 9× higher than MTS_CPEC4_V2 (FIG. 27). […] The MTS is labeled with a dye that allows us to visualize its location. It is injected IV into the tail vein of a rat. After the indicated time, the CSF is isolated from the cisterna magna. The brain is harvested. After a fixation period, the brain is sliced in 1 mm coronal segments (front to back). The individual slices of the brain are imaged using fluorescence to locate the regions of peptide accumulation

Data set [2] can be described thus: Serum stability of MTS peptide. The data set is classed as in vitro ADME. The following applies: read-out: peptide remains intact. On the procedure:
The stability of the different MTS sequences is important. […] 80% of the peptide remains intact at 24 hours. Modifications were mapped by MS.

Data set [3] concerns choroid plexus epithelial cell layer. In words: Phage clone transport through human choroid plexus cells in vitro (FIG. 12). Type of data set: cell-based. The following applies: phage-displayed peptide. On the procedure: CPEC4_Phage clone sequence […] (SEQ ID NO:2) was the lead peptide sequence in these studies. CPEC4 phage clone is enriched as multiple rounds of panning were performed. CPEC4 phage clone is selected from the transwell indicating transport and release.
The phage clone remains viable during the cellular transport.

Data set [4] relates to human primary choroid plexus epithelial cells. In words: Transwell transport of fluorescent protein cargo across human choroid plexus in vitro model. The data set is classed as cell-based. The source says: A rat model was developed as well. Selection to identify a phage clone from the library that crosses the choroid plexus epithelial barrier has also been informed. […] The phage clone was transported into the CSF selectively and data supported similar transport for the MTS peptide.
FIG. 13 represents a dimer of the CPEC4 peptide. The CPEC4 peptide was synthesized as a dimer and having a biotin handle that allows for attachment of fluorescently labeled proteins.
6-9% of the protein is transported across the cell layer. Tight junctions remain intact as witnessed by lack of dextran transport and maintenance of transepithelial resistance at the end of the experiment.

Data set [5] has as its system rat choroid plexus epithelial cells (Z310). Kind of data set: Transwell transport across rat choroid plexus epithelial cells (Z310). The data set is classed as cell-based. On the procedure: FIG. 15 is an in vitro transwell assay used to determine the ability of the MTS_CPEC4 phage clone or peptide to cross a choroid plexus barrier model derived from a Rat (Z310) cells). The amount of input placed on one side of the barrier (the “blood” side) and the amount that passes through the cells to the other side (the CSF side) is measured. The top table represents the data for the phage clone. The empty phage has no MTS peptide attached. The amount of phage in each side of the transwell is determined by bacterial titering. The bottom table represents the data for the synthetic peptide. Here the peptide is labeled with a fluorophore so the peptide on either side of the barrier can be measured. Dextran-dye (such as Alexa Fluor 488) is used as a control molecule. This molecule should not pass through the transwell and assures that the choroid plexus model is valid.
Other lead MTS peptides were examined using a transwell transport set up with rat choroid plexus cells (FIG. 24). Eight phage clones were enriched in the CSF. Individual phage clones were then tested for transcytosis in vitro on Z310 choroid plexus cells and CSF accumulation in rats. MTS_Z310-2 (SEQ ID NO:4) and MTS_Z310-5 (SEQ ID NO:7) phage clones were carried forward for further evaluation. […] The 20% transport is better than that seen with CPEC4. […]

No end group written: not given here.

Turning to `CSCC[C@H](NC(=O)[C@H](CCC(N)=O)NC(=O)[C@H](Cc1c[nH]c2ccccc12)NC(=O)[C@H](CC(=O)O)NC(=O)[C@H](CC(C)C)NC(=O)[C@H](CO)NC(=O)[C@@H](NC(=O)[C@H](CCC(N)=O)NC(=O)[C@H](CC(C)C)NC(=O)[C@H](CCCCN)NC(=O)[C@H](Cc1ccc(O)cc1)NC(=O)[C@H](C)NC(=O)[C@H](CC(=O)O)NC(C)=O)[C@@H](C)O)C(=O)N[C@@H](Cc1c[nH]c2ccccc12)C(=O)N[C@@H](CC(N)=O)C(=O)N1CCC[C@H]1C(=O)NCCOCCOCCOCCOCCOCCOCCOCCOCCOCCOCCOCCC(N)=O` [MTS-CPEC4_V2], the “transport across monolayer of choroid plexus cells” value with choroid plexus cells was “efficiently transported”. The “accumulation in the CSF” value in data set [1] (rats, tail vein injection) is on record as “accumulating in the CSF”. Further, the remaining at 24 h in data set [2] was determined as 80%.

Take “DGYKLQTSLDWQMWNP (molecular transport peptide) [MTS_CPEC4_V1]”: the “transport across monolayer of choroid plexus cells” value in the data set on choroid plexus cells is “efficiently transported”. In data set [3], the “transport of phage particle across choroid plexus epithelial cell layer” value is “mediates transport of a large phage particle across choroid plexus epithelial cell layer”. Moreover, the “protein transported across the cell layer” value in data set [4] is on record as 6-9%.

As for “Dimeric MTS_Z310-2: comprises two MTS peptides each having the sequence FPSWTSKNQQWTNQRQ (SEQ ID NO:4) (also: dimer, linkage not given here)”, in data set [1], the “amount present relative to MTS_CPEC4_V2” value is on record as 9 × and the “distribution in brain (fluorescence imaging of coronal slices)” value (“distribution in brain” below) is listed as “distributed throughout the ventricular system”.

As to “Dimeric MTS_Z310-5: comprises two MTS peptides each having the sequence SKETYSMNAQRQHERS (SEQ ID NO:7) (also: dimer, linkage not given here)”, in data set [1], the “amount present relative to MTS_CPEC4_V2” value turned out to be 3 × and the “distribution in brain” value is “distributed throughout the ventricular system of the brain”.

Regarding “FPSWTSKNQQWTNQRQ (molecular transport peptide) [MTS_Z310-2]”, the “transport of protein cargo” value in data set [5] stood at 20%.

Regarding “MTS_CPEC4_V2 (SEQ ID NO: 1) dimers: comprises two MTS peptides each having the sequence DAYKLQTSLDWQMWNP (SEQ ID NO: 1) (also: dimer, linkage not given here)”, the “distribution in brain” value in data set [1] is reported as “distributed throughout the ventricular system of the brain”.

For the compound “SKETYSMNAQRQHERS (molecular transport peptide) [MTS_Z310-5]”, the “transport of protein cargo” value in data set [5] is recorded as 20%.
